Results taken from patent publication US9856228B2, “Peptidyl nitril compounds as dipeptidyl peptidase I inhibitors” (Prozymex A/S, priority 2013, dated 2018).
Several values for one entry are separate records, joined by “and”; a condition that tells them apart may be missing. Equal entries are not always repeated.

Experiments:
[1] = Test for metabolic stability, Mouse Liver Microsomes; type: in vitro ADME; conditions: for Metabolic stability mouse microsomes t½: mouse liver microsomes 1.0 mg/mL; for Metabolic stability mouse microsomes t½ / half-life at 5 μM: 5 μM test compound, NADPH; for half-life at 5 μM: mouse, liver microsomes, pH 7.4, mouse liver microsomes 1.0 mg/mL, read-out: Metabolic stability mouse microsomes t½
Procedure: (§1) The test for metabolic stability was performed by Absorption System, Exton, Pa. 19341, USA.
(§2) The test compound (DPPI inhibitor) was dissolved in 100% DMSO at a concentration of 10 mM. The reaction mixture, consisted of Mouse or Human Liver Microsomes (1.0 mg/mL), 1 mM NADPH, 100 nnM Potassium Phosphate, pH 7.4, 10 mM Magnesium Chloride and test compound at a concentration of 5 μM.
(§3) An aliquot of the reaction mixture (without cofactors) was incubated in a shaking water bath at 37° C. for 3 minutes. Another aliquot of the reaction mixture was prepared as the negative control. The test compound was added into both the reaction mixture and the negative control at a final concentration of 5 μM.
(§4) The reaction was initiated by the addition of NADPH to 1 mM (not into the negative controls) and then incubated in a shaking water bath at 37° C. Aliquots (100 μL) were withdrawn at 0, 10, 20, 30, and 60 minutes or at 0, 15, 30 and 60 minutes and combined with 900 μL of ice-cold 50/50 acetonitrile/dH2O to terminate the reaction. A control (testosterone) was run simultaneously with the test compound in a separate reaction. LC/MS/MS is used to determine the peak area response ratio (peak area corresponding to test compound or control divided by that of an analytical internal standard). The natural log of the percent remaining was plotted versus time. A linear fit was used to determine the rate constant. The fit was truncated if the percent remaining of test compound was less than 10%. The elimination half-lives associated with the disappearance of the test and control compounds were determined to compare their relative metabolic stability.

[2] = tested on: human lymphoblastoid TK6 cells; assay: Test for cytotoxicity (relative cell proliferation, optical absorbance); type: cell-based; conditions: for highest concentration that does not cross the significance threshold: TK6 strains GenM-T01 and GenM-C01, 24 hour and 48 hour time points, threshold 80% relative cell density
Procedure: The test for cytotoxicity was performed by Cyprotex Discovery Ltd. 15 Beech lane, Macclesfield, Cheshire, SK10 2DR, UK.
Two strains of cultured human lymphoblastoid TK6 cells was used, GenM-T01 and GenM-C01. A dilution series of each test compound was generated in a 96-well, black microplate with an optically clear base. The plates was analysed at 24 hour and 48 hour time points using a microplate reader, that provides measurements of light absorbance for cells and solutions in the microplates wells.
Cytotoxicity was assessed using relative cell proliferation, quantified using optical absorbance. Cytotoxic compounds are those which reduce relative cell density below a significance threshold set at 80% compared to the vehicle-treated control, at one or more test concentrations.

CYP2C9 = target: T1, CYP2C9 (Homo sapiens, UniProt P11712); assay: Test for inhibition of CYP2C9 in Human Liver Microsomes; type: in vitro ADME; conditions: pooled Human Liver Microsomes, 6 μM diclofenac; read-out: CYP inhibition IC50 CYP2C9
T1 construct: incubated with pooled Human Liver Microsomes (0.25 mg protein/mL); from tissue; host or cells: pooled human liver microsomes
T1 sequence (P11712 whole entry): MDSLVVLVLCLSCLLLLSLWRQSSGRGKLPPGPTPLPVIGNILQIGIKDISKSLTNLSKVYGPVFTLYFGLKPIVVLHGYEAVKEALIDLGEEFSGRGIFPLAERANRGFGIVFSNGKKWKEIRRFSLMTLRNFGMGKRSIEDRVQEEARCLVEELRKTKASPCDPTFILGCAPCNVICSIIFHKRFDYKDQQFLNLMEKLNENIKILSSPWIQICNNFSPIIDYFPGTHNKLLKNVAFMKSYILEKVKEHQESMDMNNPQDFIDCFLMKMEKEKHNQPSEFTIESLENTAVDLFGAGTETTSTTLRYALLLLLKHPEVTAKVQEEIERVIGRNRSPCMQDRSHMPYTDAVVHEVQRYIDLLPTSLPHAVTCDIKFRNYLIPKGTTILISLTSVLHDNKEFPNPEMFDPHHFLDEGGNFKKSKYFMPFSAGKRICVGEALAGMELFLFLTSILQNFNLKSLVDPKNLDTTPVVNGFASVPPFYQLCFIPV
Procedure: (§5) The test for inhibition of CYP2C9, CYP2D6 and CYP3A4 enzymes was performed by Absorption System, Exton, Pa. 19341, USA according to the procedure described below.
(§6) The IC50 values of Example 1 of WO2012119941 (PZ1024) and the compound of the present invention (PZ1025) for CYP enzymes (CYP2C9, CYP2D6, and CYP3A4) in Human Liver Microsomes were measured. […] After a period of incubation, the samples were treated by the addition of protein precipitation solvent and centrifuged. CYP enzyme activities were measured by determining the formation of the CYP probe metabolites by LC-MS/MS, and the IC50 (the concentration of an inhibitor causing 50% inhibition) was estimated using GraphPad Prism® software by fitting the experimental data (percent of control activity remaining at each concentration of test compound) to a sigmoidal model and non-linear regression analysis.
(§7) The CYP enzyme activities in the Human Liver Microsomes were verified in parallel by determining the inhibition of positive inhibitors on the CYP enzyme activities (sulfaphenazole, quinidine and ketoconazole for CYP2C9, CYP2D6, and CYP3A4, respectively).

DPPI [3] = target: T2, DPPI (Homo sapiens, UniProt P53634); assay: Human DPPI inhibition assay (Gly-Phe-paranitroanilide substrate); type: biochemical; set-up: purchased UNIZYME Laboratories A/S; conditions: Table 1 potency; assay not given
T2 sequence (P53634 231-394 limits assumed): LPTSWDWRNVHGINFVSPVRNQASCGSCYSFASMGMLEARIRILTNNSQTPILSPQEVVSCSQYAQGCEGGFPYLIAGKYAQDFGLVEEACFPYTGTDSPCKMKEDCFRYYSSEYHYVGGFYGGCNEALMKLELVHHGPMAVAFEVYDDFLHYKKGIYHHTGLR
T2 sequence (P53634 25-134 limits assumed): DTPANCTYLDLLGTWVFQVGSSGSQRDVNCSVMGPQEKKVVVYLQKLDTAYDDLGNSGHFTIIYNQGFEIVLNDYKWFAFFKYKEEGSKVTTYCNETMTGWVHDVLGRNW
T2 sequence (P53634 395-463 limits assumed): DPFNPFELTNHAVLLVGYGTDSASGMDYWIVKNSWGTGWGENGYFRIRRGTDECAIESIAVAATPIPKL
Procedure: Using this assay, the IC50 value of the compound of the invention may be determined using Gly-Phe-paranitroanilide as a DPPI specific substrate.
Assay buffer: 20 mM citric acid (2.1 g citric acid), 150 mM NaCl (4.4 g NaCl) and 2 mM EDTA (370 mg EDTA) was dissolved in 500 mL H2O, and pH was adjusted to 4.5 with HCl.
Substrate: Gly-Phe-paranitroanilide (Sigma Aldrich; Cat. No G0142) was used as the substrate for determination of IC50 values. Km was 2.2 mM. The substrate was solubilized in dinnethylformamid to give a 0.2-0.5 M stock solution, which was then further diluted with stirring in assay buffer to a final concentration of 1 mM.
DPPI: Human DPPI (obtained from UNIZYME Laboratories A/S, DK-2970 Høsholm, Denmark) was stored at −20° C. in a buffer containing 2.5 mM Na-phosphate, 150 mM NaCl, 2 mM cysteamine, 50% glycerol, pH 7.0 at a concentration of 1-2 mg/mL (5-10 μM). This stock solution was diluted 500-1000 times in assay buffer to a concentration of 10-20 nM.
Assay conditions: The assay was performed in 96-well plates. Diluted enzyme (25 μL) was added to the well, followed by 25 μL of test substance in varying concentrations, and the solution was mixed. […] The absorption was measured at 405 nm at 37° C. for every 90 seconds for 12 minutes or every 20 seconds for 4 minutes. […] IC50 was determined using a 4-parameter logistic equation in a non-linear curve fitting routine.

CYP2D6 = target: T3, CYP2D6 (Homo sapiens, UniProt P10635); assay: Test for inhibition of CYP2D6 in Human Liver Microsomes; type: in vitro ADME; conditions: pooled Human Liver Microsomes, 7 μM bufuralol; read-out: CYP inhibition IC50 CYP2D6
T3 construct: incubated with pooled Human Liver Microsomes (0.25 mg protein/mL); from tissue; host or cells: pooled human liver microsomes
T3 sequence (P10635 whole entry): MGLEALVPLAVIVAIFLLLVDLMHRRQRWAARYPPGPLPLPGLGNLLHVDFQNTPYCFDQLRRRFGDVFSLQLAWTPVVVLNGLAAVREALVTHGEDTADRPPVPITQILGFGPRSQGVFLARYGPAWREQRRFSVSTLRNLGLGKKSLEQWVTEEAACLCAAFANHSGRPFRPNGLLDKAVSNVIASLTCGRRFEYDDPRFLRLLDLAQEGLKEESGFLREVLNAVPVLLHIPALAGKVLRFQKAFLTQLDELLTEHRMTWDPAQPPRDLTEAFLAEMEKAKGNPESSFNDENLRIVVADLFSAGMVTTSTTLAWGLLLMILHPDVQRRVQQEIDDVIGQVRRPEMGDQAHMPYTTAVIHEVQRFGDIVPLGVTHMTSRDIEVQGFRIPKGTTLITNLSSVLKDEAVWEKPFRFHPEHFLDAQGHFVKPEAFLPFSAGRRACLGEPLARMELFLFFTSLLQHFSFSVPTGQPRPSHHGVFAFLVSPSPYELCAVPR
Procedure: as §5, §6, §7

[4] = Test for metabolic stability, Human Liver Microsomes; type: in vitro ADME; conditions: for Metabolic stability human microsomes t½: human liver microsomes 1.0 mg/mL; for Metabolic stability human microsomes t½ / half-life at 5 μM: 5 μM test compound, NADPH; for half-life at 5 μM: human, liver microsomes, pH 7.4, human liver microsomes 1.0 mg/mL, read-out: Metabolic stability human microsomes t½
Procedure: as §1, §2, §3, §4

CYP3A4 = target: T4, CYP3A4 (Homo sapiens, UniProt P08684); assay: Test for inhibition of CYP3A4 in Human Liver Microsomes; type: in vitro ADME; conditions: pooled Human Liver Microsomes, 75 μM testosterone; read-out: CYP inhibition IC50 CYP3A4
T4 construct: incubated with pooled Human Liver Microsomes (0.25 mg protein/mL); from tissue; host or cells: pooled human liver microsomes
T4 sequence (P08684 whole entry): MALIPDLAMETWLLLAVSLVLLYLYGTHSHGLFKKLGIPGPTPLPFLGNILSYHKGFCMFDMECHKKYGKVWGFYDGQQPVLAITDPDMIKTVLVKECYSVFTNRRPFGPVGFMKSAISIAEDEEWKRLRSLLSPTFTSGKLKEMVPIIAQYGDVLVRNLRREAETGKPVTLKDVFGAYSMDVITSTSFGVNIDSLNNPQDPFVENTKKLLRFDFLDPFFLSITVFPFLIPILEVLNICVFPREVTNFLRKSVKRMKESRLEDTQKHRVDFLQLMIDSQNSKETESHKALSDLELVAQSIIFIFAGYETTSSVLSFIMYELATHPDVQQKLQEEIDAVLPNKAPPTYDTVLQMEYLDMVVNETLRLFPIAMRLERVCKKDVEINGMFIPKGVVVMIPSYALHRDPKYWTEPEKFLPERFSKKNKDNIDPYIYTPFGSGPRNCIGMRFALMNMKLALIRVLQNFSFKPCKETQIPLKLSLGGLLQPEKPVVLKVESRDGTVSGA
Procedure: as §5, §6, §7

DPPI [5] = target: T2, DPPI; assay: Cell based DPPI inhibition assay (neutrophil elastase activity in U937 cells); set-up: endogenous in cells; host or cells: U937 cells; conditions: 24 hours, elastase activity readout
Procedure: Using the cell based assay described below, the biological activity of the compounds of the invention or other DPPI inhibitors may be determined.
Neutrophil elastase enzymatic activities in U937 cells grown in the presence of DPPI inhibitors were measured by methods modified from Méthot N; Rubin J; Guay D; Beaulieu C; Ethier D; Reddy T J; Riendeau D and Percival M D (2007) 3 Biol Chem, 282, 20836-20846. U937 cells were propagated in culture media (RPMI 1640, supplemented with 10% FBS, 10 mM Hepes, 1 mM sodium pyrovate, 100 units/ml of each of penicillin and streptomycin). Cells were seeded in 12-well plates at 0.4×10^6 cells/ml in volumes of 1.5 ml per well in the presence of no or increasing concentrations of DPPI inhibitor. 12 points in duplicate in the range of 0.1 nM to 50 μM inhibitor were tested. After 24 hours cells were harvested, washed with PBS and lysed in 20 mM Tris-HCl, pH 7.5, 100 mM NaCl, 0.2% Triton X-100. […]
The activity of neutrophil elastase was determined by measuring the enzymatic release of chromogenic p-nitroaniline from the substrate MetOSuc-Ala-Ala-Pro-Val-pNA, which leads to an increase in absorbance at 405 nm. Assays were carried out in 96-well plates in a final volume of 200 μL at 37° C., and absorbance was measured 8 times during 21-35 minutes using a plate reader. IC50 was determined using a 4-parameter logistic equation in a non-linear curve fitting routine.

Metabolic stability mouse microsomes t½ [1] | half-life at 5 μM [1] [min] | IC50 (CYP2C9) [nM] | IC50 (DPPI [3]) [nM] | IC50 (CYP2D6) [nM] | Metabolic stability human microsomes t½ [4] | half-life at 5 μM [4] [min] | IC50 (CYP3A4) [nM] | half-life in mouse liver microsomes, times higher than PZ1024 ([1]; PZ1025 versus PZ1024) | half-life in mouse liver microsomes, times higher than PZ1032 ([1]; PZ1025 versus PZ1032) | IC50 (DPPI [5]) | half-life in human liver microsomes, times higher than PZ1024 ([4]; PZ1025 versus PZ1024) | half-life in human liver microsomes, times higher than PZ1032 ([4]; PZ1025 versus PZ1032) | SMILES | highest concentration that does not cross the significance threshold [2] [µM] | times less toxic than PZ1024 ([2]; PZ1025 versus PZ1024, TK6 cytotoxicity)
t½ ≈ 10 min | ~10 | > 100000 | 37 | 18000 | t½ ≈ 55 min | ~55 | > 100000 | – | – | – | – | – | CN1CCN(Cc2ccc(-c3ccc(C[C@@H](C#N)NC(=O)C4(N)CCCCC4)cc3)cc2)CC1 [PZ1024, reference compound] | 15 | –
t½ ≈ 65 min | ~65 | > 100000 | 34 | > 100000 | t½ > 300 min | > 300 | > 100000 | more than 6 times | about 2 times | 11 nM and ~11 nM | more than 5 times | more than 5 times | CN1CCN(Cc2ccc(-c3ccc(C[C@@H](C#N)NC(=O)C4(N)CCOCC4)cc3)cc2)CC1 [PZ1025, (S)-4-amino-N-(1-cyano-2-(4′-((4-methylpiperazin-1-yl)methyl)biphenyl-4-yl)ethyl)tetrahydro-2H-pyran-4-carboxamide] | 150 | at least 5 times
t½ ≈ 35 min | 35 | – | – | – | t½ ≈ 50 min | 50 | – | – | – | ~11 nM | – | – | CN1CCN(S(=O)(=O)c2ccc(-c3ccc(C[C@@H](C#N)NC(=O)C4(N)CCOCC4)cc3)cc2)CC1 [PZ1032, reference compound] | – | –
